Measurements taken from patent US6608058B2, “6-methylnicotinamide derivatives as antiviral agents” (Dong Wha Pharm. Ind. Co., Ltd., priority 2000, dated 2003).

Assays:
HBV polymerase = assay: Inhibitory effect on the in vitro activities of HBV polymerase in reverse transcription (ELISA-type); assay type: biochemical
Description: The present inventors submitted application for a patent concerning HBV polymerase genetically expressed in and separated from E. coli, the process of its preparation, and the method to measure the enzyme activities (KR 94-3918, KR 96-33998). In the present experiments HBV polymerase was used which had been expressed in E. coli as stated above.
The method used in the present invention to measure in vitro reverse transcribing activities of HBV polymerase is as follows. Basic principles are the same as those for ELISA, nucleotides with biotin- or digoxigenin- group are included as substrates and anti-DIG antibodies attached to peroxidase enzyme recognize the polymerized substrates.
To the wells coated with streptavidin, 20 μl of HBV polymerase, 20 μl of reaction mixture (10 μM each of DIG-UTP and Biotin-UTP, 46 mM Tris-HCl, 266 mM KCl, 27.5 mM MgCl2, 9.2 mM DTT substrate/primer hybrid), and 20 μl of test compound (added to […]) were added and allowed to react at 22° C. for 15 hrs. During this reaction, HBV polymerase catalyzes DNA synthesis, and digoxigenin and biotin attached to nucleotides form bonds to streptavidin coated on the bottom of wells. When the reaction was done, each well was washed with 250 μl of cleaning buffer (pH 7.0) for 30 seconds, which was repeated five times to remove remaining impurities. 200 μl of anti-DIG-POD antibody was added to each well and allowed to react for 1 hr at 37° C., and the wells were washed with cleaning buffer to remove impurities. 200 μl each of ABTS™, a substrate of peroxidase, was then added and allowed to react at room temperature for 30 min. Absorbancy was measured at 405 nm using ELISA reader.
The inhibitory effects in HBV polymerase activities for reverse transcription were calculated using the group without test compound as a control and the results are shown in Table 1 as follows.

[1] = biological target: T1, HIV reverse transcriptase (Human immunodeficiency virus type 1 group M subtype B, UniProt P04585); assay: Inhibitory effect on the in vitro HIV reverse transcriptase activity (non-radioactive RT assay kit); assay type: biochemical; details: for inhibition at 0.1 µg/mL: 0.1 μg/ml; for inhibition at 1 µg/mL: 1 μg/ml
T1 construct: purchased Boehringer Mannheim
Description: Non-radioactive reverse transcriptase assay kit (Boehringer Mannheim) was used in the measurement of in vitro transcriptase activities. 20 μl (40 ng) of HIV reverse transcriptase and 20 μl of reaction mixture containing matrix-primer hybrid poly(A)oligo(dT)15, DIG(digoxigenin)-dUTP, biotin-dUTP, dTTP were added to wells coated with streptavidin, and the test compounds prepared were also added at the final concentrations of 0.1 and 1 μ/ml and allowed to react at 37° C. for 1 hr. At this time, DNA is formed from RNA by the action of HIV reverse transcriptase, forming bonds with streptavidin coated on the bottom of wells through digoxigenin and biotin moieties attached to nucleotides.
When the reaction was completed, each well was washed with 250 μl of washing buffer (pH 7.0) for 30 sec. five times to remove remaining impurities. 200 μl of anti-DIG-POD […] was added to each well, then the mixture was allowed to react at 37° C. for 1 hr and washed as above to remove impurities. 200 μl of ABTS™, a substrate for peroxidase, was added to each well and the mixture was allowed to react at room temperature for 30 min. Absorbance at 405 nm was measured for each solution using ELISA reader to determine the inhibitory effect on the HIV reverse transcriptase activities. The percentage of inhibition in the activity of HIV reverse transcriptase was calculated using the group without test compound as control and the results are represented in Table 3.

Row | Compound | Inhibitory activity on HBV-RT (%) (HBV polymerase; 0.01 μg/ml) | Inhibitory activity on HBV-RT (%) (HBV polymerase; 0.1 μg/ml) | Inhibitory activity on HBV-RT (%) (HBV polymerase; 1 μg/ml) | inhibition at 0.1 µg/mL [1] | inhibition at 1 µg/mL [1]
1 | Cc1ccc(C(=O)Nc2cccnc2)c(Nc2ccc3[nH]ncc3c2)n1 [Example 4, 2-(1H-5-indazolylamino)-6-methyl-N-(3-pyridyl)nicotinamide] | 50% | 64% | 92% | 40% | 64%
2 | Cc1ccc(C(=O)N(N)C(=O)c2cccnc2)c(Nc2ccc3cn[nH]c3c2)n1 [Example 22, 2-(1H-6-indazolylamino)-6-methyl-N-(3-pyridylcarbonyl)-3-pyridinecarbohydrazide] | 26% | 54% | 85% |  | 
3 | Cc1ccc(C(=O)NCCN(C)C)c(Nc2ccc3cn[nH]c3c2)n1 [Example 12, N-[2-(dimethylamino)ethyl]-2-(1H-6-indazolylamino)-6-methylnicotinamide] | 49% | 60% | 86% |  | 
4 | CNC(=O)c1ccc(C)nc1Nc1ccc2cn[nH]c2c1 [Example 7, 2-(1H-6-indazolylamino)-6-methyl-N-methylnicotinamide] | 21% | 50% | 70% |  | 
5 | Cc1ccc(C(=O)NCCN2CCCCC2)c(Nc2ccc3cn[nH]c3c2)n1 [Example 15, 2-(1H-6-indazolylamino)-6-methyl-N-[2-(1-piperidinyl)ethyl]nicotinamide] | 12% | 57% | 87% | 43% | 78%
6 | Cc1ccc(C(=O)NCCN2CCOCC2)c(Nc2ccc3cn[nH]c3c2)n1 [Example 14, 2-(1H-6-indazolylamino)-6-methyl-N-[2-(4-morpholinyl)ethyl]nicotinamide] | 52% | 68% | 91% | 41% | 70%
7 | Cc1ccc(C(=O)NN2CCOCC2)c(Nc2ccc3cn[nH]c3c2)n1 [Example 16, 2-(1H-6-indazolylamino)-6-methyl-N-(4-morpholinyl)nicotinamide] | 35% | 51% | 78% |  | 
8 | Cc1ccc(C(=O)NC(C)C)c(Nc2ccc3[nH]ncc3c2)n1 [Example 1, 2-(1H-5-indazolylamino)-N-isopropyl-6-methylnicotinamide] | 30% | 49% | 78% | 42% | 75%
9 | Cc1ccc(C(=O)NC2CC2)c(Nc2ccc3cn[nH]c3c2)n1 [Example 11, N-cyclopropyl-2-(1H-6-indazolylamino)-6-methylnicotinamide] | 32% | 54% | 84% | 45% | 82%
10 | Cc1ccc(C(=O)NN2CCN(C)CC2)c(Nc2ccc3cn[nH]c3c2)n1 [Example 17, 2-(1H-6-indazolylamino)-6-methyl-N-(4-methyl-1-piperazinyl)nicotinamide] | 24% | 56% | 86% | 50% | 84%
11 | Cc1ccc(C(=O)NC(C)(C)C)c(Nc2ccc3cn[nH]c3c2)n1 [Example 9, N-(t-butyl)-2-(1H-6-indazolylamino)-6-methylnicotinamide] | 20% | 48% | 65% |  | 
12 | Cc1ccc(C(=O)N[C@H]2CC[C@H](O)CC2)c(Nc2ccc3[nH]ncc3c2)n1 [Example 3, N-(Trans-4-hydroxy-1-cyclohexyl)-2-(1H-5-indazolylamino)-6-methylnicotinamide] | 53% | 61% | 80% | 51% | 80%
13 | CCN(CC)CCNC(=O)c1ccc(C)nc1Nc1ccc2cn[nH]c2c1 [Example 13, N-[2-(diethylamino)ethyl]-2-(1H-6-indazolylamino)-6-methylnicotinamide] | 15% | 45% | 54% |  | 
14 | Cc1ccc(C(=O)NCCc2ccccn2)c(Nc2ccc3[nH]ncc3c2)n1 [Example 6, 2-(1H-5-indazolylamino)-6-methyl-N-(2-pyridylethyl)nicotinamide] | 40% | 55% | 84% | 45% | 77%
15 | Cc1ccc(C(=O)Nc2cccnc2)c(Nc2ccc3cn[nH]c3c2)n1 [Example 18, 2-(1H-6-indazolylamino)-6-methyl-N-(3-pyridyl)nicotinamide] | 18% | 40% | 69% |  | 
16 | Cc1ccc(C(=O)N2CCOCC2)c(Nc2ccc3cn[nH]c3c2)n1 [Example 23, 2-(1H-6-indazolylamino)-6-methyl-3-(4-morpholinylcarbonyl)pyridine] | 12% | 40% | 62% |  | 
17 | Cc1ccc(C(=O)NCc2cccnc2)c(Nc2ccc3cn[nH]c3c2)n1 [Example 19, 2-(1H-6-indazolylamino)-6-methyl-N-(3-pyridylmethyl)nicotinamide] | 32% | 48% | 76% |  | 
18 | Cc1ccc(C(=O)NCCCn2ccnc2)c(Nc2ccc3cn[nH]c3c2)n1 [Example 20, N-[3-(1H-1-imidazolyl)propyl]-2-(1H-6-indazolylamino)-6-methylnicotinamide] | 47% | 59% | 88% | 47% | 88%
19 | Cc1ccc(C(=O)NCc2cccnc2)c(Nc2ccc3[nH]ncc3c2)n1 [Example 5, 2-(1H-5-indazolylamino)-6-methyl-N-(3-pyridylmethyl)nicotinamide] | 37% | 43% | 65% | 38% | 69%
20 | Cc1ccc(C(=O)NN2CCOCC2)c(Nc2ccc3[nH]ncc3c2)n1 [Example 2, 2-(1H-5-indazolylamino)-6-methyl-N-(4-morpholinyl)nicotinamide] | 42% | 57% | 88% | 49% | 84%
21 | Cc1ccc(C(=O)NCCO)c(Nc2ccc3cn[nH]c3c2)n1 [Example 10, N-(2-hydroxyethyl)-2-(1H-6-indazolylamino)-6-methylnicotinamide] | 48% | 62% | 89% |  | 
22 | Cc1ccc(C(=O)N(N)c2ccccn2)c(Nc2ccc3cn[nH]c3c2)n1 [Example 21, 2-(1H-6-indazolylamino)-6-methyl-N-(2-pyridyl)-3-pyridinecarbohydrazide] | 30% | 50% | 86% | 49% | 75%
23 | Cc1ccc(C(=O)NC(C)C)c(Nc2ccc3cn[nH]c3c2)n1 [Example 8, 2-(1H-6-indazolylamino)-N-isopropyl-6-methylnicotinamide] | 23% | 54% | 78% | 28% | 65%
